Test results: patent US9249086B2, “Carboxylic acid ALA esters” (Photocure ASA, priority 2012, dated 2016)
Structures can show the parent of a compound that is named as a salt.

Legend:
[1] = system: S. aureus strain DSM 20231 (ATCC 12600); experiment: Dark toxicity in bacteria; format: cell-based, Staphylococcus aureus; conditions: 0.001, 0.1, 1 and 10 mM, plate not illuminated
Procedure: S. aureus strain DSM 20231 (ATCC 12600). The bacterial strain was grown for 24 hours on heart infusion agar (Difco) at 35-37° C. prior to carrying out the experiment and re-suspended in 20 mM PIPES, pH 7.2-7.4 at a concentration corresponding to a McFarland 0.5 standard (approximately 1-5×10^8 CFU/mL). In order to ensure viable cell cultures and to check the inoculum size and purity, bacterial stocks were made immediately prior to experimentation and the CFU/mL determined in a standard colony assay.
“Dark toxicity”, i.e. the toxic effect of the compounds in the absence of light (and therefore unrelated to PDT effects), can include bacteria cell death and therefore can interfere with the accurate measurement of the PDT effect, which also results in bacterial cell death. Dark toxicity can be measured by determining the toxicity of each compound under the same experimental conditions, but in the absence of light, thereby avoiding any PDT effect. The use of the compounds of the invention under conditions that produce low dark toxicity is advantageous because dark toxicity effects could also include harming or killing non-target cells and interfering with the PDT treatment itself. […]
Dark toxicity was determined as described in the paragraph “PDT-treatment” below, except that the plate was not illuminated. […]

[2] = system: sebaceous glands and epidermis of minipig skin; experiment: Minipig skin biopsies, fluorescence microscopy; format: in vivo, minipigs; conditions: minipig skin biopsy sections; 15% cream
Procedure: The cream was administered as described above. At t=0 (i.e. prior to administration of the cream), 1.5, 5 and 12 hours, biopsy samples were taken using a 10 mm biopsy punch (AcuPunch 10 mm, Acuderm, USA). The samples were taken and handled in a minimally illuminated room. Each sample was trimmed free of any subcutaneous fatty tissue and thereafter cut in half. Each sample was then snap frozen in liquid nitrogen, in an aluminium foil bag or similar, and transferred to a −80° C. freezer.
The biopsy samples were sectioned at 10 μm and again care was taken to minimize the surrounding light. When sebaceous glands and epidermis could be identified, a series of 3 consecutive sections was prepared from each sample. The sections were examined within 15 minutes in a Leica DMRXE microscope equipped for both ordinary light microscopy and fluorescence microscopy. Epidermis and sebaceous glands were localized using conventional light microscopy. This was carried out within 5 seconds and then the light source was changed to a mercury lamp/fluorescence with filter set; excitation filter 390-447 nm, beam splitter 455 nm and an emission filter >600 nm. The sections were immediately photographed. Without moving the specimen the light source was changed back to conventional light microscopy and the sections were photographed in exactly the same position as for the fluorescence microscopy. As well as the epidermis and sebaceous glands, the dermis was analysed and if fluorescence was found also photographed. To further investigate localisation of all analyzed structures, the sections were stained with hematoxylin/eosin.
Image analysis was performed using the software program, Image J (version Fiji-win32.exe). With this program, average fluorescence intensity per pixel was measured from the saved images.

back skin of minipigs = experiment: In vivo skin fluorescence study in minipigs (FluoDerm); conditions: 15% cream in Unguentum Merck, 0.5 g per site, 1.5, 5 and 12 hours after application, FIG. 1
Procedure: Compound 1c (carboxymethyl 5-amino-4-oxopentanoate hydrobromide, prepared according to Example 1c) was formulated as a cream in Unguentum Merck (15%, 150 mg/g; 0.56 mmol).
The cream was administered to the back skin of minipigs. Prior to application of the cream, the surrounding skin was cleaned with sterile water and gauze, if necessary. 0.5 g cream was applied to each test site (50 mm in diameter) resulting in a homogenous cream layer and then covered with a dressing (Tegaderm®). The gauze Vet-Flex® was used to keep the dressing in place.
Skin fluorescence at 630 nm was assessed prior to cream application and at 1.5, 5 and 12 hours after cream application using the FluoDerm instrument (DiaMedico ApS, Denmark) according to the manufacturers instructions. The FluoDerm instrument is a hand-held device for objective real-time in vivo measuring of average fluorescence over a circular field with diameter 40 mm. Measurements were electronically corrected for the actual ambient light.

[3] = system: Salmonella typhimurium, TA98 and TA100; experiment: Ames test (mutagenic and photomutagenic potential); format: cell-based; conditions: absence and presence of S-9, absence and presence of visible light
Description: The Ames test (see B. N. Ames et al, Methods for detecting carcinogens and mutagens with the Salmonella/mammalian-microsome mutagenicity test. Mutation Research 31, 347-364, 1975) is a standard test method approved by the regulatory authorities to detect an ability of a test chemical compound to induce mutation in certain bacterial strains. If a test chemical compound induces such mutations, it cannot be used in a pharmaceutical compound for use in humans.
The objective of this study was to evaluate the mutagenic potential and photomutagenic potential of compound 1c, carboxymethyl 5-amino-4-oxopentanoate hydrobromide (prepared according to Example 1c) by examining its ability to revert two histidine-requiring strains of Salmonella typhimurium, TA98 and TA100, in the absence and presence of a rat liver metabolising system (S-9) and also in the absence and presence of visible light. The latter was assessed since compound 1c is taken up by the bacteria cells and converted into a photosensitiser, which, upon illumination of said cells, might induce mutagenic products.

[4] = system: skin of healthy nude mice; experiment: In vivo skin fluorescence study in healthy nude mice; conditions: cream in Unguentum Merck, equimolar (16-19%), about 100 μl on back, 6 hours in the dark, excitation 365 and 405 nm, mean of 5 mice
Procedure: A study was carried out to assess the potential of the compounds of the invention as precursors for photosensitisers for skin application. As such, the compounds of the invention need to be able to penetrate the skin, to be taken up by the cells in the skin and to be converted to photosensitisers. The result of this process can be visualized by exposing the skin to light which excites the photosensitiser molecules and to determine the amount of energy which is released in the form of fluorescence when the excited photosensitiser molecules relax to an energetically lower state.
Compounds 2, 4 and 7 above were formulated as creams in Unguentum Merck. The compounds were tested in equimolar amounts:
3 groups of mice (5 mice/group, each mouse of one group receiving the same cream formulation) were included in the experiment. About 100 μl of cream formulation was applied onto the back of one mouse. The mice were kept in the dark for 6 hours prior to skin fluorescence measurement to avoid photobleaching. For assessment of skin fluorescence, a fluorescence camera (Medeikonos PDD/PDT, Medeikonos AB, Gothenburg, Sweden) was used and images of the back of each mouse were taken. Excitation was carried out at wavelengths of 365 and 405 nm and 2 s illumination time. Each image was calibrated to a fluorescence standard (Uranyl Standard, J&M, Analytische Mess- and Regeltechnik GmbH, Hamburg, Germany) and adjusted for background fluorescence. The mean amount of skin fluorescence in each image was calculated by means of image analyzer-software (MatLab 7.2.0.232, Math-Works, Natick, Mass., USA) and the mean amount of skin fluorescence for each group of mice (5 mice/compound) was calculated.

[5] = system: Rat bladder cells (AY-27); experiment: Cytotoxicity in rat bladder cells (MTT test); format: cell-based; conditions: AY-27 cells; for Cytotoxicity: 2 hours, MTT test
Procedure: All experiments were performed in 4-5 replicates under subdued light. For concentrations of compounds 1 mM, the cytotoxicity was assessed with MTT test. Exponentially growing cells were incubated with freshly prepared solution or medium as described above for 2 hours in 96-well plates. After the incubation, the solutions or the medium was discarded and the cells were washed twice with PBS. Then 50 μl of MTT (2.5 mg·ml^−1) was added to 150 μl of RPMI serum-free medium per well and incubated for 3 hours. Absorbance was measured by dissolving formazan crystals with 50 μl of DMSO. The absorbance was normalized to that of control cells.

[6] = system: Rat bladder cells (AY-27); experiment: PpIX measurements in rat bladder cells; format: cell-based; conditions: AY-27 cells; for PpIX Mean ± SD: 2 hours incubation
Procedure: Rat bladder cells (AY-27) were grown in the culture medium (RPMI 1640 supplemented with 9% fetal calf serum 1% L-glutamin (200 mM) and 1% penicillin (10 000 UI), streptomycin (10 000 μg·mL^−1). Exponentially growing cells (AY-27) were incubated for 2 hours with freshly prepared solutions of 0.8 mM HAL (which is a tenth of the concentration which is used for bladder cancer […]). Control cells received serum-free medium without any test or reference compounds. After the incubation, the solutions or the medium was discarded and the cells were rinsed 2 times with ice-cooled PBS. PpIX was extracted from cells using an ice-cold lysis extraction mixture, consisting of ethanol/DMSO/acetic acid (80/20/1, v/v/v). The cell lysate was centrifuged (400 g, 10 min, 2° C.), the pellet was grinded and the suspension was sonicated for 15 min before being centrifuged. The fluorescence signal of PpIX was measured with a Perkin-Elmer LS 55 spectrometer (Perkin-Elmer, Beaconsfield, UK) and expressed as a function of the protein content. The fluorescence intensity at 635 nm in each sample was reported on a calibration curve established with PpIX (Sigma-Aldrich, France) diluted in extraction mixture as described above. The PpIX concentration was expressed relative to the protein content. Briefly, a lysis buffer mixture (1 mM EDTA, 1% Triton X-100 and 10 mM Tris-HCl; pH 7.4) was added to frozen cell dishes together with 500 mM PMSF (anti-protease) solution in DMSO. Lysates were kept on ice for 30 minutes and centrifuged at 4° C. for 20 minutes at 15 000 g. The protein content was then measured against a BSA calibration curve by a Biorad DC protein assay kit (Bio-Rad, France) based on a method developed by Lowry.

| SMILES | Dark toxicity [1] | Selectivity for sebaceous glands [2] | Time after cream application at which fluorescence was also seen in the epidermis [2] [h] | Time after cream application at which fluorescence was seen in the sebaceous glands [2] [h] | Skin fluorescence at 630 nm over time (back skin of minipigs) | Induction of mutation or photomutation [3] | Skin fluorescence [4] [a.u.] | Cytotoxicity ([5]; 1 mM) | Cytotoxicity ([5]; 5 mM) | Cytotoxicity ([5]; 15 mM) | Cytotoxicity at higher concentration ([5]; concentration higher than 5 mM) | PpIX Mean ± SD ([6]; 1 mM) [pmoles/mg protein] | PpIX Mean ± SD ([6]; 5 mM) [pmoles/mg protein] | PpIX Mean ± SD ([6]; 15 mM) [pmoles/mg protein] | PpIX concentration compared to HAL (0.8 mM) ([6]; compound at 1 mM) | PpIX concentration compared to HAL (0.8 mM) ([6]; compound at 5 mM) |
| --- | --- | --- | --- | --- | --- | --- | --- | --- | --- | --- | --- | --- | --- | --- | --- | --- |
| NCC(=O)CCC(=O)OCC(=O)O [Compound 1c, carboxymethyl 5-amino-4-oxopentanoate hydrobromide] | No dark toxicity was observed | shows a selectivity for sebaceous glands | 5 | 1.5 | skin fluorescence increased with time | did not induce mutation or photomutation |  |  |  |  |  |  |  |  |  |  |
| NCC(=O)CCC(=O)OCCC(=O)O [Compound 4, 2-carboxyethyl 5-amino-4-oxopentanoate hydrobromide] | No dark toxicity was observed |  |  |  |  |  | 8473 | 3 % of control | 14 % of control | 39 % of control | cytotoxicity was induced | 45 ± 8 | 141 ± 24 | 180 ± 94 | significantly lower compared to HAL | About half of the PpIX concentration of HAL |
